# Data taken from patent US7906522B2, “2-aminoquinazoline derivatives” (Kyowa Hakko Kirin Co., Ltd, priority 2005, dated 2011).
# What was measured:
# Activated human p38α = target: T1, Activated human p38α (Homo sapiens, UniProt Q16539); assay: p38MAP kinase inhibition test; format: biochemical; settings: at a concentration of 1 μmol/L; substrate myelin basic protein, ATP 20 μmol/L, [γ-32P]ATP; read-out: enzyme inhibitory activity
# T1 construct: purchased Upstate Biotechnology Inc. 14-251
# Procedure, shortened: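 Radiometric kinase assay with myelin basic protein (20 μg/assay) as substrate, 20 μmol/L ATP plus [γ-32P]ATP, MOPS pH 7.2 with MgCl2 18.75 mmol/L. Reaction run 15 min at 30° C., stopped with phosphoric acid; 32P-MBP captured on phosphocellulose and counted by scintillation.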
# T1 sequence (Q16539 whole entry): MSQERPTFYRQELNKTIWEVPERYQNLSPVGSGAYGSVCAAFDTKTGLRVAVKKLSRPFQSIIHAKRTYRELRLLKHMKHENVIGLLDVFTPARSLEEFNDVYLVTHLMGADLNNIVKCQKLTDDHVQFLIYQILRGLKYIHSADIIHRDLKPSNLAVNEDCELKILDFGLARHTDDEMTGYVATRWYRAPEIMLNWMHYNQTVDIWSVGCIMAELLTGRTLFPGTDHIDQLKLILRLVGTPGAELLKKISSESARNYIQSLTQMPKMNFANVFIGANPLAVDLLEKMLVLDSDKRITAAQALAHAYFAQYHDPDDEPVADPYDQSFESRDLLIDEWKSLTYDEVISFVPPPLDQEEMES
melting point,inhibition at 1 µM (Activated human p38α),Compound
268 to 271 °C,≥ 50%,"CS(=O)(=O)N1CCC(Nc2ncc3cc(-c4ccccc4Cl)c(O)cc3n2)CC1 [Compound 156, 6-(2-Chlorophenyl)-7-hydroxy-2-[1-(methylsulfonyl)piperidin-4-ylamino]quinazoline]"
251 to 253 °C,≥ 50%,"CCS(=O)(=O)N1CCC(Nc2ncc3cc(-c4ccccc4Cl)c(O)cc3n2)CC1 [Compound 161, 6-(2-Chlorophenyl)-2-[1-(ethylsulfonyl)piperidin-4-ylamino]-7-hydroxyquinazoline]"
173 to 175 °C,≥ 50%,"CC[C@H](C)Nc1ncc2cc(-c3ccccc3Cl)c(O)cc2n1 [Compound 163, (S)-2-(sec-Butylamino)-6-(2-chlorophenyl)-7-hydroxyquinazoline]"
165 °C,≥ 50%,"CC[C@H](C)Nc1ncc2cc(-c3ccccc3C)c(O)cc2n1 [Compound 169, (S)-2-(sec-Butylamino)-7-hydroxy-6-(2-methylphenyl)quinazoline]"
198 to 200 °C,≥ 50%,"CCC(CC)Nc1ncc2cc(-c3ccccc3C)c(O)cc2n1 [Compound 170, 2-(3-Pentylamino)-7-hydroxy-6-(2-methylphenyl)quinazoline]"
158 °C,≥ 50%,"Cc1ccccc1-c1cc2cnc(NC3CCCCC3)nc2cc1O [Compound 171, 2-(Cyclohexylamino)-7-hydroxy-6-(2-methylphenyl)quinazoline]"
220 to 222 °C,≥ 50%,"Cc1ccccc1-c1cc2cnc(Nc3c(C)cccc3C)nc2cc1O [Compound 175, 2-(2,6-Dimethylanilino)-7-hydroxy-6-(2-methylphenyl)quinazoline]"
226 to 227 °C,≥ 50%,"Cc1ccccc1-c1cc2cnc(Nc3c(Cl)cccc3Cl)nc2cc1O [Compound 176, 2-(2,6-Dichloroanilino)-7-hydroxy-6-(2-methylphenyl)quinazoline]"
234 to 236 °C,≥ 50%,"Cc1ccccc1-c1cc2cnc(Nc3ccccc3)nc2cc1O [Compound 178, 2-Anilino-7-hydroxy-6-(2-methylphenyl)quinazoline]"
130 to 133 °C,≥ 50%,"CCc1cccc(C)c1Nc1ncc2cc(-c3ccccc3C)c(O)cc2n1 [Compound 180, 2-(2-Ethyl-6-methylanilino)-7-hydroxy-6-(2-methylphenyl)quinazoline]"
122 to 125 °C,≥ 50%,"COc1cc2nc(NC(C)C)ncc2cc1-c1cc(C(=O)NC2CC2)ccc1C [Compound 236, 6-(5-Cyclopropylcarbamoyl-2-methylphenyl)-2-isopropylamino-7-methoxyquinazoline]"
285 to 290 °C,≥ 50%,"CS(=O)(=O)N1CCC(Nc2ncc3cc(-c4cccc(O)c4)c(O)cc3n2)CC1 [Compound 247, 7-Hydroxy-6-(3-hydroxyphenyl)-2-[1-(methylsulfonyl)piperidin-4-ylamino]quinazoline]"
258 °C,≥ 50%,"CC(C)Nc1ncc2cc(-c3cccc(NC(=O)c4ccnc(N5CCOCC5)c4)c3)c(O)cc2n1 [Compound 290, 7-Hydroxy-2-isopropylamino-6-{3-[(2-morpholinopyridin-4-yl)carbonylamino]phenyl}quinazoline]"
150 °C,≥ 50%,"CC(C)Nc1ncc2cc(-c3cccc(NC(=O)c4cccc(N(C)C)c4)c3)c(O)cc2n1 [Compound 291, 6-{3-[(3-Dimethylaminophenyl)carbonylamino]phenyl}-7-hydroxy-2-(isopropylamino)quinazoline]"
142 °C,≥ 50%,"Cc1cc(C)c(Nc2ncc3cc(-c4ccccc4C)c(O)cc3n2)c(C)c1 [Compound 300, 7-Hydroxy-6-(2-methylphenyl)-2-(2,4,6-trimethylanilino)quinazoline]"
185 °C,≥ 50%,"Cc1cccc(C)c1Nc1ncc2cc(-c3cccc(NC(=O)c4ccnc(N5CCOCC5)c4)c3)c(O)cc2n1 [Compound 312, 2-(2,6-Dimethylanilino)-7-hydroxy-6-{3-[(2-morpholinopyridin-4-yl)carbonylamino]phenyl}quinazoline]"
210 to 213 °C,≥ 50%,"Cc1ccc(C(=O)NC2CC2)cc1-c1cc2cnc(Nc3c(C)cccc3C)nc2cc1O [Compound 317, 6-(5-Cyclopropylcarbamoyl-2-methylphenyl)-2-(2,6-dimethylanilino)-7-hydroxyquinazoline]"

melting point,inhibition at 1 µM (Activated human p38α),Compound
190 to 193 °C,≥ 50%,"Cc1ccc(C(=O)NC2CC2)cc1-c1cc2cnc(Nc3c(Cl)cccc3Cl)nc2cc1O [Compound 319, 6-(5-Cyclopropylcarbamoyl-2-methylphenyl)-2-(2,6-dichloroanilino)-7-hydroxyquinazoline]"
156 to 160 °C,≥ 50%,"Cc1ccc(C(=O)NC2CC2)cc1-c1cc2cnc(NC(C)C)nc2cc1O [Compound 322, 6-(5-Cyclopropylcarbamoyl-2-methylphenyl)-7-hydroxy-2-(isopropylamino)quinazoline]"
217 to 218 °C,≥ 50%,"Cc1ccc(C(=O)Nc2cccc(N(C)C)c2)cc1-c1cc2cnc(NC(C)C)nc2cc1O [Compound 324, 6-{5-[(3-Dimethylaminophenyl)carbamoyl]-2-methylphenyl}-7-hydroxy-2-(isopropylamino)quinazoline]"
236 °C,≥ 50%,"CC(C)Nc1ncc2cc(-c3cccc(C(=O)Nc4cccc(N(C)C)c4)c3)c(O)cc2n1 [Compound 325, 6-{3-[(3-Dimethylaminophenyl)carbamoyl]phenyl}-7-hydroxy-2-(isopropylamino)quinazoline]"
248 to 249 °C,≥ 50%,"CC(C)Nc1ncc2cc(-c3cccc(C(=O)Nc4cccc(N5CCOCC5)c4)c3)c(O)cc2n1 [Compound 328, 7-Hydroxy-2-isopropylamino-6-{3-[(3-morpholinophenyl)carbamoyl]phenyl}quinazoline]"
251 to 253 °C,≥ 50%,"CC(C)Nc1ncc2cc(-c3cccc(C(=O)Nc4cccc(N5CCCC5)c4)c3)c(O)cc2n1 [Compound 330, 7-Hydroxy-2-isopropylamino-6-{3-[3-(pyrrolidin-1-yl)phenylcarbamoyl]phenyl}quinazoline]"
217 to 219 °C,≥ 50%,"CC(C)Nc1ncc2cc(-c3cccc(NC(=O)c4cc(F)cc(N5CCOCC5)c4)c3)c(O)cc2n1 [Compound 332, 6-[3-(3-Fluoro-5-morpholinobenzoylamino)phenyl]-7-hydroxy-2-(isopropylamino)quinazoline]"
250 °C (dec.),≥ 50%,"CC(C)Nc1ncc2cc(-c3cccc(C(=O)NC4CC4)c3)c(O)cc2n1 [Compound 334, 6-[3-(Cyclopropylcarbamoyl)phenyl]-7-hydroxy-2-(isopropylamino)quinazoline]"
248 to 249 °C,≥ 50%,"CC(C)Nc1ncc2cc(-c3cccc(NC(=O)c4ccnc(N5CCCC5)c4)c3)c(O)cc2n1 [Compound 336, 7-Hydroxy-2-isopropylamino-6-{3-[2-(pyrrolidin-1-yl)pyridin-4-ylcarbonylamino]phenyl}quinazoline]"
280 to 281 °C,≥ 50%,"COc1ccc(C(F)(F)F)cc1NC(=O)c1ccc(C)c(-c2cc3cnc(NC(C)C)nc3cc2O)c1 [Compound 338, 7-Hydroxy-2-isopropylamino-6-{5-[(2-methoxy-5-trifluoromethylphenyl)carbamoyl]-2-methylphenyl}quinazoline]"
230 °C,≥ 50%,"CC(C)Nc1ncc2cc(-c3cccc(NC(=O)c4cccc(N5CCOCC5)c4)c3)c(O)cc2n1 [Compound 340, 7-Hydroxy-2-isopropylamino-6-[3-(3-morpholinobenzoylamino)phenyl]quinazoline]"
255 to 257 °C,≥ 50%,"CC(C)Nc1ncc2cc(-c3cccc(C(=O)Nc4ccnc(N5CCOCC5)c4)c3)c(O)cc2n1 [Compound 342, 7-Hydroxy-2-isopropylamino-6-{3-[(2-morpholinopyridin-4-yl)carbamoyl]phenyl}quinazoline]"
175 to 177 °C,≥ 50%,"Cc1c(F)cc(C(=O)NC2CC2)cc1-c1cc2cnc(NC(C)C)nc2cc1O [Compound 344, 6-(5-Cyclopropylcarbamoyl-3-fluoro-2-methylphenyl)-7-hydroxy-2-(isopropylamino)quinazoline]"
169 to 172 °C,≥ 50%,"Cc1ccc(NC(=O)c2ccnc(N3CCOCC3)c2)cc1-c1cc2cnc(NC(C)C)nc2cc1O [Compound 346, 7-Hydroxy-2-isopropylamino-6-{2-methyl-5-[(2-morpholinopyridin-4-yl)carbonylamino]phenyl}quinazoline]"
251 to 253 °C,≥ 50%,"COc1c(NC(=O)c2ccc(C)c(-c3cc4cnc(NC(C)C)nc4cc3O)c2)cc(C(C)(C)C)cc1NS(C)(=O)=O [Compound 348, 6-{5-[(5-tert-Butyl-2-methoxy-3-methylsulfonylaminophenyl)carbamoyl]-2-methylphenyl}-7-hydroxy-2-(isopropylamino)quinazoline]"
224 to 226 °C,,"Cc1cc(F)ccc1-c1cc(C(=O)Nc2cccc(-c3cc4cnc(NC(C)C)nc4cc3O)c2)ccn1 [Compound 388, 6-{3-[2-(4-Fluoro-2-methylphenyl)pyridin-4-ylcarbonylamino]phenyl}-7-hydroxy-2-(isopropylamino)quinazoline]"
